Source: patent publication US20230190852A1, “COMPOSITIONS AND METHODS FOR JOINT HEALTH” (Unigen, Inc., priority 2013, published 2023)

Test system: Wistar rats
Experiment: Adjuvant-induced arthritis (AIA) rat model (paw edema, allodynia, ankle width)
Format: in vivo
Parameters: Paw edema, Mean ± SD: unit not given beside the values; Allodynia, Mean ± SD / Ankle Width, Mean ± SD: unit not given here
Conditions: for reduction in ankle diameter vs. vehicle control / reduction in pain sensitivity (allodynia) / reduction in paw edema vs. vehicle control / Allodynia, Mean ± SD / Paw edema, Mean ± SD: 100 mg/kg oral daily; for Ankle Width, Mean ± SD: AIA rats, oral 100 mg/kg; for Allodynia, Mean ± SD / Paw edema, Mean ± SD: AIA model, Wistar rats
Protocol: This adjuvant-induced rat arthritis model was used to evaluate the anti-pain and anti-inflammatory activity of a Curcuma:Morus (C:M) composition. Purpose bred female Wistar rats weighing 150-175 g (Charles River Laboratories, Inc., Wilmington, Mass.) were acclimated upon arrival for a week before being assigned randomly to their respective group. The rats were provided with fresh water and rodent chow diet ad libitum while being housed in a temperature controlled room (22.2° C.) on a 12 hour light-dark cycle. Treatment was started a day before antigen inoculation, wherein animals (n=9) were orally gavaged with a positive control ibuprofen, a 1C:1M test article, or a vehicle only control (propylene glycol). On the next day, arthritis was induced by sensitizing rats with an injection of complete Freund's adjuvant containing 5 mg/ml (w/v) suspension of heat killed Mycobacterium tuberculosis in liquid paraffin into the subplantar region of right hind paw of sedated rats (Currey, Ann. Rheum. Dis. 29:314, 1970; Whitehouse et al., Can. Med. Assoc. J. 129:249, 1983) an hour after a second treatment dose.
(§1) Treatment with the controls or test articles was started a day before intraplantar injection of complete adjuvant into the right hind paw. The anti-inflammatory effect of a C:M composition was reflected in the measured change in paw edema. Rats (n=9) were treated orally with 1C:1M composition (200 mg/kg, 100 mg/kg or 50 mg/kg), ibuprofen (100 mg/kg) or vehicle for 14 days. Data are expressed as mean±SD and p-values were calculated against vehicle. Paw edema was measured with the use of a plethysmometer (IITC, Woodland Hills, Calif.; Model 520) on day 1 (before antigen), day 3, 5, 7, 9 and 13 after antigen injection.
Treatment with the controls or test articles was started a day before intraplantar injection of complete adjuvant into the right hind paw. The anti-pain effect of a C:M composition was reflected by allodynia (induced pain). Rats (n=9) were treated orally with 1C:1M composition (200 mg/kg, 100 mg/kg or 50 mg/kg), ibuprofen (100 mg/kg) or vehicle for 14 days. Data are expressed as mean±SD and p-values were calculated against vehicle. Allodynia was evaluated by responsiveness to pressure applied perpendicular to the central plantar surface of the right hind paw using the Randall—Selitto test (Randall and Selitto, Arch. Intl Pharmacodyn Therap. 133:233, 1957). A positive response to the applied mechanical pressure, noted by sharp withdrawal of the paw, was recorded automatically by an electronic Von Frey Anesthesiometer (2390 series Electrovonfrey, IITC, Woodland Hills, Calif.) (Vivancos et al., 2004).
as §1, with “ankle diameter.” for “paw edema.”, “vehicle Ankle diameter” for “vehicle. Paw edema”, “using” for “with the use of”, “Pocket Thickness Gage (7309, Mitutoyo corp. Japan)” for “plethysmometer (IITC, Woodland Hills, Calif.; Model 520)”

CC(C)Cc1ccc(C(C)C(=O)O)cc1 (stereo not drawn) [Ibuprofen]
reduction in ankle diameter vs. vehicle control (day 3): 37.2% | reduction in pain sensitivity (allodynia) (day 3): 31.3% | reduction in paw edema vs. vehicle control (day 3): 28.8% | reduction in ankle diameter vs. vehicle control (day 5): 34.8% | reduction in pain sensitivity (allodynia) (day 5): 39.5% | reduction in paw edema vs. vehicle control (day 5): 21.1% | reduction in ankle diameter vs. vehicle control (day 7): 36.8% | reduction in pain sensitivity (allodynia) (day 7): 48.8% | reduction in paw edema vs. vehicle control (day 7): 19.4% | reduction in ankle diameter vs. vehicle control (day 9): 33.5% | reduction in pain sensitivity (allodynia) (day 9): 52.5% | reduction in paw edema vs. vehicle control (day 9): 24.3% | reduction in ankle diameter vs. vehicle control (day 13): 44.2% | reduction in pain sensitivity (allodynia) (day 13): 52.5% | reduction in paw edema vs. vehicle control (day 13): 32.7% | Ankle Width, Mean ± SD (Day 3): 1.1 ± 0.1 | Ankle Width, Mean ± SD (Day 5): 1.0 ± 0.1 | Ankle Width, Mean ± SD (Day 7): 1.2 ± 0.1 | Ankle Width, Mean ± SD (Day 9): 1.0 ± 0.2 | Ankle Width, Mean ± SD (Day 13): 0.8 ± 0.1 | Allodynia, Mean ± SD (Day 3): 67.4 ± 5.6 | Paw edema, Mean ± SD (Day 3): 3.5 ± 0.7 | Allodynia, Mean ± SD (Day 5): 54.8 ± 2.6 | Paw edema, Mean ± SD (Day 5): 3.1 ± 0.8 | Allodynia, Mean ± SD (Day 7): 43.0 ± 4.6 | Paw edema, Mean ± SD (Day 7): 3.1 ± 0.7 | Allodynia, Mean ± SD (Day 9): 38.8 ± 2.3 | Paw edema, Mean ± SD (Day 9): 2.7 ± 0.6 | Allodynia, Mean ± SD (Day 13): 32.9 ± 2.6 | Paw edema, Mean ± SD (Day 13): 2.1 ± 0.58
